Measurements taken from patent US20260335305A1, “METHODS OF USING ITRACONAZOLE DRY POWDERS” (Pulmatrix Operating Company, Inc., priority 2022, published 2026).
Like-named read-outs stand apart in the source and are kept apart here.

Tests used:
[1] = Itraconazole subparticle size of milled suspension; assay type: physicochemical; details: water and polysorbate 80, milled at 1800 rpm for one hour
Procedure: Particle Size Reduction using Low Energy Wet Milling. One technique for reducing the particle size of the itraconazole was via low energy wet milling (also known as roller milling, or jar milling). Suspensions of the itraconazole were prepared in an anti-solvent, which can be water, or any solvent in which the active agent is not appreciably soluble. Stabilizers, which can be, but are not limited to, non-ionic surfactants or amphiphilic polymers, are then added to the suspension along with milling media, which can be, but are not limited to, spherical with high wear resistance and in the size range from 0.03 to 0.70 millimeters in diameter. The vessels containing the suspensions are then rotated using a jar mill (US Stoneware, East Palestine, OH USA) while taking samples periodically to assess particle size (LA-950, HORIBA, Kyoto, Japan).
Particle Size Reduction using High Energy Wet Milling: Another technique for reducing the particle size of the itraconazole was via high-energy wet milling using a rotor-stator, or agitated media mill. Suspensions of the itraconazole were prepared in an anti-solvent, which can be water, or any solvent in which the active agent is not appreciably soluble. […]

[2] = cited from earlier work; for AUC0-24 h / Accumulation ratio AUC0-24 h / Accumulation ratio Cmax / Cmax / Kel / Tmax: inhaled Formulation I
[3] = tested on: CYP3A4; details: role: inhibitor; unbound Ki, Simcyp V19 file; cited from earlier work
[4] = single inhaled dose of 20 mg of dry powder; cited from earlier work
[5] = cited from earlier work; for RB / fu: Simcyp V19 file
[6] = Day 1, 35 mg inhaled Formulation I QD
[7] = Day 14, 35 mg inhaled Formulation I QD

| Compound | AUC0-24 h, observed mean [2, 6] [ng·h/mL] | Cmax, observed mean [2, 6] [ng/mL] | AUC0-24 h, observed mean [2, 7] [ng·h/mL] | Cmax, observed mean [2, 7] [ng/mL] | AUC0-24 h ([2]; 10 mg) | Accumulation ratio AUC0-24 h ([2]; 10 mg) | Accumulation ratio Cmax ([2]; 10 mg) | Cmax ([2]; 10 mg) | Kel ([2]; 10 mg) [h⁻¹] | Tmax ([2]; 10 mg) [h] | AUC0-24 h ([2]; 20 mg) | Accumulation ratio AUC0-24 h ([2]; 20 mg) | Accumulation ratio Cmax ([2]; 20 mg) | Cmax ([2]; 20 mg) | Kel ([2]; 20 mg) [h⁻¹] | Tmax ([2]; 20 mg) [h] | AUC0-24 h ([2]; 35 mg QD for 14 days) | Accumulation ratio AUC0-24 h ([2]; 35 mg QD for 14 days) | Accumulation ratio Cmax ([2]; 35 mg QD for 14 days) | Cmax ([2]; 35 mg QD for 14 days) | also measured |
| --- | --- | --- | --- | --- | --- | --- | --- | --- | --- | --- | --- | --- | --- | --- | --- | --- | --- | --- | --- | --- | --- |
| CCC(C)n1ncn(-c2ccc(N3CCN(c4ccc(OCC5COC(Cn6cncn6)(c6ccc(Cl)cc6Cl)O5)cc4)CC3)cc2)c1=O (centres unmarked) [Itraconazole, itraconazole] | […] | 5.23 | […] | 15.2 | […] | […] | […] | […] | […] | […] | […] | […] | […] | […] | […] | […] | […] | […] | […] | 15.2 (49.3) ng/mL | final median particle size (Dv(50)) of the milled suspension [1]: […]; Kel ([2]; 35 mg QD for 14 days): […]; Tmax ([2]; 35 mg QD for 14 days): […]; Ki, u, ITZ [3]: […]; lung exposure [4]: lung exposures that would be considered therapeutic; RB [5]: […]; fu [5]: […] |
| Cc1ncc2n1-c1ccc(Cl)cc1C(c1ccccc1F)=NC2 [Midazolam, midazolam] |  |  |  |  |  |  |  |  |  |  |  |  |  |  |  |  |  |  |  |  | fm ([5]; Simcyp V19 Midazolam File): 0.84 |
| CC(O)C(C)n1ncn(-c2ccc(N3CCN(c4ccc(OCC5COC(Cn6cncn6)(c6ccc(Cl)cc6Cl)O5)cc4)CC3)cc2)c1=O (centres unmarked) [OH-itraconazole] | 38.2 | 2.10 | 168 | 8.68 | 42.4 (26.1) ng h/mL | 3.8 | 3.5 | 2.25 (25.3) ng/mL | 0.0263 | 6 | 128 (56.1) ng h/mL | 4.4 | 4.2 | 6.43 (54.7) ng/mL | 0.0223 | 6 | 169 (116) ng h/mL | 4.5 | 4.2 | 8.68 (91.0) ng/mL | Kel ([2]; 35 mg QD for 14 days): 0.0248 h⁻¹; Tmax ([2]; 35 mg QD for 14 days): 8 h; Ki, u, ITZ [3]: 2.3 nM; RB [5]: 0.58; fu [5]: 0.016 |
